Results from ChEMBL document CHEMBL4627397 (J Med Chem, 2020).

Legend:
in vitro [1] = details: human, liver microsomes
in vitro [2] = details: human, hepatocytes
Description: Intrinsic clearance in human hepatocytes at 0.2 nmol assessed per million cells up to 240 mins in presence of NADPH by LC-MS/MS analysis

in vitro [3] = details: dog, MDCK
Description: Apparent permeability in RRCK cells

physchem = details: octanol/water, pH 7.4
Description: Octanol/water partition coefficient, log D of compound at pH 7.4 by shake-flask method

`CCOC(=O)N1CCC(=C2c3ccc(Cl)cc3CCc3c(CO)ccnc32)CC1` gave a microsomal CLint at 1 h, 10 µM (in vitro [1]) of 283 µL/min/mg, a hepatocyte CLint at 4 h (in vitro [2]) of 58.6 µL/min/1e6 cells and a Papp (in vitro [3]) of 16.2 ×10⁻⁶ cm/s. It also gave a logD (physchem) of 2.6.

`CCOC(=O)N1CCC(=C2c3ccc(Cl)cc3CCc3cc(O)cnc32)CC1` gave a microsomal CLint at 1 h, 10 µM (in vitro [1]) of 132 µL/min/mg, a hepatocyte CLint at 4 h (in vitro [2]) of 96 µL/min/1e6 cells and a Papp (in vitro [3]) of 11 ×10⁻⁶ cm/s. For the same compound, the logD (physchem) was 3.1.

`CCOC(=O)N1CCC(=C2c3ccc(Cl)cc3CCc3ccc[n+](C)c32)CC1` showed a microsomal CLint at 1 h, 10 µM (in vitro [1]) of 23 µL/min/mg, a hepatocyte CLint at 4 h (in vitro [2]) of 6 µL/min/1e6 cells and a Papp (in vitro [3]) of 0.2 ×10⁻⁶ cm/s. It also gave a logD (physchem) of 0.3.

Compound `CCOC(=O)N1C=C/C(=C2/c3ccc(Cl)cc3CCc3cc(O)cnc32)CC1` has a microsomal CLint at 1 h, 10 µM (in vitro [1]) of 61 µL/min/mg, a hepatocyte CLint at 4 h (in vitro [2]) of 62 µL/min/1e6 cells and a logD (physchem) of 3.9.

For `CCOC(=O)N1C=C/C(=C2\c3ccc(Cl)cc3CC(O)c3cccnc32)CC1` (configuration not stated), the hepatocyte CLint at 4 h (in vitro [2]) was 82 µL/min/1e6 cells, the Papp (in vitro [3]) was 78 ×10⁻⁶ cm/s and the logD (physchem) was 3.4.

`CCOC(=O)N1CCC(=C2c3ccc(Cl)cc3CCc3ccc(C(F)F)nc32)CC1` showed a microsomal CLint at 1 h, 10 µM (in vitro [1]) of 108 µL/min/mg, a hepatocyte CLint at 4 h (in vitro [2]) of 48.7 µL/min/1e6 cells and a Papp (in vitro [3]) of 7.7 ×10⁻⁶ cm/s. The logD (physchem) was 4.6.

For `CCOC(=O)N1CCC2(CC1)OC21c2ccc(Cl)cc2CCc2cccnc21` (configuration not stated), the microsomal CLint at 1 h, 10 µM (in vitro [1]) was 89 µL/min/mg, the hepatocyte CLint at 4 h (in vitro [2]) was 26.2 µL/min/1e6 cells and the Papp (in vitro [3]) was 17.9 ×10⁻⁶ cm/s. For the same compound, the logD (physchem) was 2.9.

Work on `CCOC(=O)N1C(O)CC(=C2c3ccc(Cl)cc3CCc3cccnc32)CC1O` (configuration not stated) yielded a microsomal CLint at 1 h, 10 µM (in vitro [1]) of 21 µL/min/mg, a hepatocyte CLint at 4 h (in vitro [2]) of 14 µL/min/1e6 cells and a Papp (in vitro [3]) of 19.8 ×10⁻⁶ cm/s. For the same compound, the logD (physchem) was 2.3.

`CCOC(=O)N1CCC(=C2c3ccc(Cl)cc3CC(F)c3cccnc32)CC1` (configuration not stated) showed a microsomal CLint at 1 h, 10 µM (in vitro [1]) of 120 µL/min/mg, a hepatocyte CLint at 4 h (in vitro [2]) of 32 µL/min/1e6 cells and a Papp (in vitro [3]) of 13 ×10⁻⁶ cm/s. It also gave a logD (physchem) of 4.5.

`CCOC(=O)N1CCC(=C2c3ccc(Cl)cc3C(O)Cc3cccnc32)CC1` (configuration not stated) gave a microsomal CLint at 1 h, 10 µM (in vitro [1]) of 157 µL/min/mg, a hepatocyte CLint at 4 h (in vitro [2]) of 40 µL/min/1e6 cells and a Papp (in vitro [3]) of 26.2 ×10⁻⁶ cm/s. The logD (physchem) was 3.2.

Compound `CCOC(=O)N1CCC(=C2c3ccc(Cl)cc3C=Cc3cccnc32)CC1` has a hepatocyte CLint at 4 h (in vitro [2]) of 9 µL/min/1e6 cells, a Papp (in vitro [3]) of 98 ×10⁻⁶ cm/s and a logD (physchem) of 2.6.

`CCOC(=O)N1C=C/C(=C2/c3ccc(Cl)cc3CCc3cccnc32)CC1` gave a Papp (in vitro [3]) of 53 ×10⁻⁶ cm/s and a logD (physchem) of 3.6.

In the case of `CCOC(=O)N1C=C/C(=C2\c3ccc(Cl)cc3CCc3cc(O)cnc32)CC1`, the microsomal CLint at 1 h, 10 µM (in vitro [1]) is reported as 66 µL/min/mg, the hepatocyte CLint at 4 h (in vitro [2]) is reported as 67 µL/min/1e6 cells and the logD (physchem) is reported as 3.1.

`CCOC(=O)N1CCC(=C2c3ccc(Cl)cc3CC(O)c3cccnc32)CC1` (configuration not stated) showed a microsomal CLint at 1 h, 10 µM (in vitro [1]) of 132 µL/min/mg, a hepatocyte CLint at 4 h (in vitro [2]) of 61.5 µL/min/1e6 cells and a Papp (in vitro [3]) of 23.7 ×10⁻⁶ cm/s. The logD (physchem) was 3.3.

`CCOC(=O)N1CC(O)C(=C2c3ccc(Cl)cc3CCc3cccnc32)C(O)C1` (configuration not stated) showed a microsomal CLint at 1 h, 10 µM (in vitro [1]) of 35 µL/min/mg, a hepatocyte CLint at 4 h (in vitro [2]) of 18 µL/min/1e6 cells and a Papp (in vitro [3]) of 23 ×10⁻⁶ cm/s. It also gave a logD (physchem) of 2.8.

With `OC1Cc2cc(Cl)ccc2C(=C2CCNCC2)c2ncccc21` (configuration not stated) the hepatocyte CLint at 4 h (in vitro [2]) was 3.14 µL/min/1e6 cells, the Papp (in vitro [3]) was 78.4 ×10⁻⁶ cm/s and the logD (physchem) was 1.1.

With `OC1Cc2cccnc2C(=C2CCNCC2)c2ccc(Cl)cc21` (configuration not stated) the hepatocyte CLint at 4 h (in vitro [2]) was under 1.75 µL/min/1e6 cells, the Papp (in vitro [3]) was 79.9 ×10⁻⁶ cm/s and the logD (physchem) was 0.94.

In the case of `CCOC(=O)N1CCC2(CC1)OC21c2ccc(Cl)cc2CCc2ccc[n+]([O-])c21` (configuration not stated), the microsomal CLint at 1 h, 10 µM (in vitro [1]) is reported as under 7 µL/min/mg, the hepatocyte CLint at 4 h (in vitro [2]) is reported as 4.6 µL/min/1e6 cells and the Papp (in vitro [3]) is reported as 15.2 ×10⁻⁶ cm/s. For the same compound, the logD (physchem) was 2.1.

With `CCOC(=O)N1CCC(=C2c3ccc(Cl)cc3CCc3ccc[n+]([O-])c32)CC1` the microsomal CLint at 1 h, 10 µM (in vitro [1]) was 48 µL/min/mg, the hepatocyte CLint at 4 h (in vitro [2]) was 17.8 µL/min/1e6 cells and the Papp (in vitro [3]) was 26.8 ×10⁻⁶ cm/s. It also gave a logD (physchem) of 2.8.

`CCOC(=O)N1CC/C(=C2/c3ccc(Cl)cc3CCc3cccnc32)C(O)C1` (configuration not stated) gave a microsomal CLint at 1 h, 10 µM (in vitro [1]) of 51 µL/min/mg, a hepatocyte CLint at 4 h (in vitro [2]) of 19 µL/min/1e6 cells and a Papp (in vitro [3]) of 22 ×10⁻⁶ cm/s. The logD (physchem) was 3.1.

For `CCOC(=O)N1C=C/C(=C2\c3ccc(Cl)cc3CCc3cccnc32)CC1`, the microsomal CLint at 1 h, 10 µM (in vitro [1]) was 68 µL/min/mg, the Papp (in vitro [3]) was 40 ×10⁻⁶ cm/s and the logD (physchem) was 4.3.

`Clc1ccc2c(c1)CCc1cccnc1C2=C1CCNCC1` [DESLORATADINE] gave a Papp (in vitro [3]) of 2.8 ×10⁻⁶ cm/s and a logD (physchem) of 1.3.
